Assays:
Format in all cases: in vivo, human
panel of flavorists [1] = assay: Additional sensory testing for vanilla milk, flavorist panel; details: 400 ppm mogrosides, 0 to 10 scale, letter in parentheses = Duncan's test group; for Sweet Linger: aftertaste, after expectoration; for Bitterness / Mouthfeel/Thickness / Peak Sweetness / Upfront Sweetness: in-mouth
Experimental: (§1) A panel of flavorists at three locations evaluated vanilla milk containing various mogrosides at a concentration of 400 ppm mogrosides for in-mouth attributes (peak sweetness, upfront sweetness, bitterness, and mouthfeel/thickness) and aftertaste attributes (sweet taste linger), on a 0 to 10 scale. The in-mouth attributes were evaluated while holding the sample in the mouth, while the aftertaste attributes were evaluated after expectoration. The data was analyzed using Duncan's new multiple range test and the scores are provided in the data below in parentheses.

expert panelists = assay: Expert panelists' comparison of mogrosides with stevia; details: 'Examples 4 and 5', in words
panel of flavorists [2] = assay: Additional sensory testing for lemon-flavored (lemon-lime) beverage, flavorist panel; details: 600 ppm mogrosides, 0 to 10 scale, letter in parentheses = Duncan's test group; for Sweet Linger: aftertaste, after expectoration; for Bitterness / Mouthfeel/Thickness / Peak Sweetness / Upfront Sweetness: in-mouth
Experimental: as §1, with “lemon-lime beverage” for “vanilla milk containing”, “600” for “400”, “expectoration.” for “expectoration. The data was analyzed using Duncan's new multiple range test and the scores are provided in the data below in parentheses.”

panel of volunteers [3] = assay: Sensory testing for apple drink (panel, in-mouth and aftertaste attributes); set-up: key to Sweetness / Delayed Sweetness / Bitterness / Lingering Sweetness / Overall Off-Taste / Licorice Aftertaste / Bitterness Aftertaste / Mouth Coating: 10-point scale; normalized per attribute to average Reb M scores; details: for Bitterness / Delayed Sweetness / Global Flavor Intensity / Sweetness / Thickness/Body: in-mouth, average normalized score
Experimental: (§2) A panel of volunteers evaluated siamenoside I for in-mouth attributes (sweetness, delayed sweetness, sourness, bitterness, global flavor intensity, thickness/body, and astringence) and aftertaste (AT) attribtues (lingering sweetness, overall off-taste intensity, licorice off-tast, bitterness off-taste, and mouth coating) on a 10-point scale. Two replicate sessions were conducted, with a 20 minute break between sessions. There was a 90 second delay between samples within a session. Panelists evaluated all samples in a first session and evaluated the samples again a second time in a second session. Control samples of Rebaudioside M (Reb M) were evaluated during all sessions as a control. Mogroside V was also evaluated and sensory data for mogroside V is provided.
(§3) Data analysis was performed using 2-way analysis of variance (ANOVA) with interaction using Tukey's HSD test. The data was normalized for each attribute according to average scores for Reb M.
The average normalized in-mouth attributes for each sample of apple drink containing siamenoside I was evaluated below.
The average sweetness for each sample of apple drink containing siamenoside I was evaluated below.

panel of volunteers [4] = assay: Sensory testing for vanilla milk; details: for Licorice Aftertaste / Lingering Sweetness / Mouth Coating / Overall Off-Taste: aftertaste
Experimental: as §2, §3
A panel of volunteers evaluated vanilla milk for in-mouth attributes and aftertaste attributes according to the methods described in Example 1 above.
The average normalized in-mouth attributes for each sample of vanilla milk was evaluated and the results are provided below.
The average normalized aftertaste attributes for each sample of vanilla milk containing siamenoside I was evaluated and the results are provided below.

panel of volunteers [5] = assay: Sensory testing for sparkling orange beverage
Experimental: as §2, §3
A panel of volunteers evaluated a sparkling orange beverage containing siamenodie I for in-mouth attributes and aftertaste attributes according to the methods described in Example 1 above.
The average normalized in-mouth attributes for a sample of sparkling orange beverage containing siamenoside I was evaluated and the results are provided below.
The average normalized aftertaste attributes for a sample of sparkling orange beverage containing siamenoside I was evaluated and the results are provided below.

panel of volunteers [6] = assay: Sensory testing for lemon-lime carbonated soft drink; set-up: key to Sweetness / Delayed Sweetness / Bitterness / Lingering Sweetness / Overall Off-Taste / Licorice Aftertaste / Bitterness Aftertaste: 10-point scale; scores normalized to average Reb M scores
Experimental: as §2, §3
A panel of volunteers evaluated the siamenoside I-containing lemon-lime carbonated soft drink for in-mouth attributes and aftertaste attributes according to the methods described in Example 1 above.
The average normalized in-mouth attributes for a sample of lemon-lime carbonated soft drink having […] was evaluated below.
The average normalized aftertaste attributes for a sample of lemon-lime carbonated soft drink having siamenoside I was evaluated below.

[7] = 250 ppm (mogroside V 250 mg [sic]), aftertaste, 10-point scale
[8] = 250 ppm (mogroside V 250 mg [sic]), 10-point scale
[9] = 500 ppm (mogroside V 500 mg [sic]), aftertaste, 10-point scale
[10] = 500 ppm (mogroside V 500 mg [sic]), 10-point scale
[11] = 200 ppm (mogroside V 200 mg [sic]), average normalized score, 10-point scale
[12] = 200 ppm (mogroside V 200 mg [sic]), in-mouth, average normalized score, 10-point scale
[13] = 400 ppm (mogroside V 400 mg [sic]), average normalized score, 10-point scale
[14] = 400 ppm (mogroside V 400 mg [sic]), in-mouth, average normalized score, 10-point scale
[15] = at both 200 ppm and 400 ppm, in words
[16] = orange sparkling beverage, in words
[17] = sparkling orange beverage, 250 ppm (mogroside V 250 mg [sic]), aftertaste, average normalized score, 10-point scale
[18] = sparkling orange beverage, 250 ppm (mogroside V 250 mg [sic]), in-mouth, average normalized score, 10-point scale
[19] = 600 ppm (mogroside V 600 mg [sic]), aftertaste, average normalized score, 10-point scale
[20] = 600 ppm (mogroside V 600 mg [sic]), in-mouth, average normalized score, 10-point scale

For C[C@H](CC[C@@H](O[C@@H]1O[C@H](CO[C@@H]2O[C@H](CO)[C@@H](O)[C@H](O)[C@H]2O)[C@@H](O)[C@H](O)[C@H]1O[C@@H]1O[C@H](CO)[C@@H](O)[C@H](O)[C@H]1O)C(C)(C)O)[C@H]1CC[C@@]2(C)[C@@H]3CC=C4[C@@H](CC[C@H](O[C@@H]5O[C@H](CO)[C@@H](O[C@@H]6O[C@H](CO)[C@@H](O)[C@H](O)[C@H]6O)[C@H](O)[C@H]5O)C4(C)C)[C@]3(C)[C@H](O)C[C@]12C [Isomogroside V], the “Sweet Linger” value (panel of flavorists [1]) was 4.625 (b), the Bitterness (panel of flavorists [1]) was 0.875 (b) and the Mouthfeel/Thickness (panel of flavorists [1]) was 4.875 (ab). For the same molecule, the “Peak Sweetness” value (panel of flavorists [1]) was 6.188 (b), the “Upfront Sweetness” value (panel of flavorists [1]) was 5.125 (b) and the “bitter aftertaste compared with stevia” value (expert panelists) was “lower bitter aftertaste”. For the same molecule, the “licorice aftertaste compared with stevia” value (expert panelists) was “lower licorice aftertaste”, the “mouthfeel compared with stevia” value (expert panelists) was “better mouthfeel” and the “Sweet Linger” value (panel of flavorists [2]) was 4.857 (ab). The Bitterness (panel of flavorists [2]) was 2.286 (a), the Mouthfeel/Thickness (panel of flavorists [2]) was 2.571 (b) and the “Peak Sweetness” value (panel of flavorists [2]) was 5.571 (bc). For the same molecule, the “Upfront Sweetness” value (panel of flavorists [2]) was 4.000 (b).

With C[C@H](CC[C@@H](O[C@@H]1O[C@H](CO[C@@H]2O[C@H](CO)[C@@H](O)[C@H](O)[C@H]2O)[C@@H](O)[C@H](O)[C@H]1O[C@@H]1O[C@H](CO)[C@@H](O)[C@H](O)[C@H]1O)C(C)(C)O)[C@H]1CC[C@@]2(C)[C@@H]3CC=C4[C@@H](CC[C@H](O[C@@H]5O[C@H](CO)[C@@H](O)[C@H](O)[C@H]5O)C4(C)C)[C@]3(C)[C@H](O)C[C@]12C [siamenoside I] the “Bitterness Aftertaste” value (panel of volunteers [3]; [7]) was 1.3, the “Licorice Aftertaste” value (panel of volunteers [3]; [7]) was 2.2 and the “Lingering Sweetness” value (panel of volunteers [3]; [7]) was 3.2. For the same molecule, the “Overall Off-Taste” value (panel of volunteers [3]; [7]) was 2.5, the Bitterness (panel of volunteers [3]; [8]) was 1.5 and the “Delayed Sweetness” value (panel of volunteers [3]; [8]) was 2.3. The “Global Flavor Intensity” value (panel of volunteers [3]; [8]) was 3.5, the Sweetness (panel of volunteers [3]; [8]) was 4.0 and the Thickness/Body (panel of volunteers [3]; [8]) was 1.2. The “Licorice Aftertaste” value (panel of volunteers [3]; [9]) was 2.7, the “Lingering Sweetness” value (panel of volunteers [3]; [9]) was 4.7 and the “Mouth Coating” value (panel of volunteers [3]; [9]) was 2.4. The “Overall Off-Taste” value (panel of volunteers [3]; [9]) was 3.4, the Bitterness (panel of volunteers [3]; [10]) was 1.7 and the “Delayed Sweetness” value (panel of volunteers [3]; [10]) was 3.2. For the same molecule, the “Global Flavor Intensity” value (panel of volunteers [3]; [10]) was 4.4, the Sweetness (panel of volunteers [3]; [10]) was 5.3 and the Thickness/Body (panel of volunteers [3]; [10]) was 1.6. For the same molecule, the “global flavor intensity compared with mogroside V” value (panel of volunteers [3]; in words) was “higher global flavor intensity”, the “in-mouth and aftertaste profile compared with Reb M” value (panel of volunteers [3]; in words) was “comparable to that of Reb M” and the “overall off-taste compared with mogroside V” value (panel of volunteers [3]; in words) was “lower overall off-taste”. The “sweetness compared with mogroside V” value (panel of volunteers [3]; in words) was “sweeter”, the “Sweet Linger” value (panel of flavorists [1]) was 5.875 (a) and the Bitterness (panel of flavorists [1]) was 1.688 (a). The Mouthfeel/Thickness (panel of flavorists [1]) was 5.000 (ab), the “Peak Sweetness” value (panel of flavorists [1]) was 7.375 (a)— and the “Upfront Sweetness” value (panel of flavorists [1]) was 5.938 (ab). For the same molecule, the “Licorice Aftertaste” value (panel of volunteers [4]; [11]) was 1.2, the “Lingering Sweetness” value (panel of volunteers [4]; [11]) was 3.3 and the “Mouth Coating” value (panel of volunteers [4]; [11]) was 3.3. For the same molecule, the “Overall Off-Taste” value (panel of volunteers [4]; [11]) was 1.8, the Astringence (panel of volunteers [4]; [12]) was 0.7 and the “Delayed Sweetness” value (panel of volunteers [4]; [12]) was 2.2. The Fattiness (panel of volunteers [4]; [12]) was 3.5, the Sourness (panel of volunteers [4]; [12]) was 1.1 and the Sweetness (panel of volunteers [4]; [12]) was 5.6. The “Licorice Aftertaste” value (panel of volunteers [4]; [13]) was 1.7, the “Lingering Sweetness” value (panel of volunteers [4]; [13]) was 4.8 and the “Mouth Coating” value (panel of volunteers [4]; [13]) was 0.5. For the same molecule, the “Overall Off-Taste” value (panel of volunteers [4]; [13]) was 2.4, the Astringence (panel of volunteers [4]; [14]) was 0.8 and the Bitterness (panel of volunteers [4]; [14]) was 0.8. For the same molecule, the “Delayed Sweetness” value (panel of volunteers [4]; [14]) was 2.6, the Fattiness (panel of volunteers [4]; [14]) was 4.3 and the “Global Flavor Intensity” value (panel of volunteers [4]; [14]) was 4.6. The Sourness (panel of volunteers [4]; [14]) was 0.7, the Sweetness (panel of volunteers [4]; [14]) was 7.7 and the “lingering sweetness compared with Reb M” value (panel of volunteers [4]; [15]) was “increased”. The “sweetness compared with Reb M” value (panel of volunteers [4]; [15]) was “increased”, the “bitterness compared with mogroside V” value (panel of volunteers [4]; in words) was “lower bitterness” and the “delayed sweetness compared with mogroside V” value (panel of volunteers [4]; in words) was “higher”. The “global flavor intensity compared with mogroside V” value (panel of volunteers [4]; in words) was “higher global flavor intensity”, the “sweetness compared with mogroside V” value (panel of volunteers [4]; in words) was “higher” and the “delayed sweetness compared with Reb M” value (panel of volunteers [5]; [16]) was “slightly higher”. The “in mouth and aftertaste profile compared with Reb M” value (panel of volunteers [5]; [16]) was “comparable to that of Reb M”, the “sweetness compared with Reb M” value (panel of volunteers [5]; [16]) was “slightly higher” and the “sweetness compared with mogroside V” value (panel of volunteers [5]; [16]) was “higher sweetness”. The “Licorice Aftertaste” value (panel of volunteers [5]; [17]) was 2.8, the “Lingering Sweetness” value (panel of volunteers [5]; [17]) was 4.4 and the “Mouth Coating” value (panel of volunteers [5]; [17]) was 2.9. The “Overall Off-Taste” value (panel of volunteers [5]; [17]) was 3.6, the “Delayed Sweetness” value (panel of volunteers [5]; [18]) was 3.7 and the Sweetness (panel of volunteers [5]; [18]) was 5.9. The “bitter aftertaste compared with stevia” value (expert panelists) was “lower bitter aftertaste”, the “licorice aftertaste compared with stevia” value (expert panelists) was “lower licorice aftertaste” and the “mouthfeel compared with stevia” value (expert panelists) was “better mouthfeel”. For the same molecule, the “Bitterness Aftertaste” value (panel of volunteers [6]; [19]) was 1.3, the “Licorice Aftertaste” value (panel of volunteers [6]; [19]) was 3.0 and the “Lingering Sweetness” value (panel of volunteers [6]; [19]) was 4.4. The “Overall Off-Taste” value (panel of volunteers [6]; [19]) was 4.1, the Bitterness (panel of volunteers [6]; [20]) was 1.6 and the “Delayed Sweetness” value (panel of volunteers [6]; [20]) was 4.1. The “Global Flavor Intensity” value (panel of volunteers [6]; [20]) was 4.7, the Sweetness (panel of volunteers [6]; [20]) was 6.0 and the “bitterness compared with Reb M” value (panel of volunteers [6]; 600 ppm, in words) was “overall lower bitterness”. The “global flavor intensity compared with Reb M” value (panel of volunteers [6]; 600 ppm, in words) was “same”, the “sweetness compared with Reb M” value (panel of volunteers [6]; 600 ppm, in words) was “same” and the “bitterness aftertaste compared with mogroside V” value (panel of volunteers [6]; in words) was “lower bitterness aftertaste”. The “bitterness compared with mogroside V” value (panel of volunteers [6]; in words) was “lower bitterness”, the “global flavor intensity compared with mogroside V” value (panel of volunteers [6]; in words) was “higher global flavor intensity” and the “in mouth and aftertaste profile compared with Reb M” value (panel of volunteers [6]; in words) was “comparable to that of Reb M”. The “sweetness compared with mogroside V” value (panel of volunteers [6]; in words) was “higher sweetness”, the “Sweet Linger” value (panel of flavorists [2]) was 4.429 (bc) and the Bitterness (panel of flavorists [2]) was 2.571 (a). For the same molecule, the Mouthfeel/Thickness (panel of flavorists [2]) was 3.429 (ab), the “Peak Sweetness” value (panel of flavorists [2]) was 6.571 (b)— and the “Upfront Sweetness” value (panel of flavorists [2]) was 4.286 (b).

From US20240090547A1, “SWEETENER COMPOSITIONS COMPRISING MOGROSIDES AND USES THEREOF” (Firmenich Incorporated, priority 2021, published 2024)
